# In patent publication US20230024302A1, “2,3,5-TRISUBSTITUTED PYRAZOLO[1,5-A]PYRIMIDINE COMPOUNDS” (Arcus Biosciences, Inc., priority 2019, published 2023):
# Where two headings read alike, the source gives them in different places.
# Experiments:
# PI3Kγ (p120γ) = molecular target: T1, PI3Kγ (p120γ) (Homo sapiens, UniProt P48736); test: Inhibition of PI3K kinase activity (ADP Glo), PI3Kγ; details: read-out: biochemical potency (PI3Kγ IC50)
# T1 construct: purchased Promega V1761
# Outline: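 Recombinant p120γ (8 nM, 2× stock) was preincubated with compound for 1 h at rt in HEPES pH 7.4, NaCl, MgCl2 and 0.05% BSA. Reaction was started with PIP2 (0.1 mg/ml, 2×) and ATP (50 μM, 2×) and ran 60 min at rt. ADP formed was read by ADP-Glo luminescence, and IC50 came from a 4-parameter fit.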
# PI3Kγ = molecular target: T2, PI3Kγ (Homo sapiens, UniProt P48736); test: PI3Kγ cellular assay in THP-1 cells (AKT pS473 AlphaLISA); format: cell-based
# T2 construct: host or cells: THP-1
# Outline: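 Serum-starved THP-1 cells (1.8×10^5/well, serum-free DMEM) treated with compounds from 4 nM to 30 μM in 2% DMSO, then stimulated and lysed.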
# [1] = Table 1, rhMCP-1 stimulated AKT pS473, read-out: cellular potency (PI3Kγ IC50)
# [2] = Table 2, rhMCP-1 stimulated AKT pS473, read-out: cellular potency (PI3Kγ IC50)
# T2 sequence (P48736 whole entry): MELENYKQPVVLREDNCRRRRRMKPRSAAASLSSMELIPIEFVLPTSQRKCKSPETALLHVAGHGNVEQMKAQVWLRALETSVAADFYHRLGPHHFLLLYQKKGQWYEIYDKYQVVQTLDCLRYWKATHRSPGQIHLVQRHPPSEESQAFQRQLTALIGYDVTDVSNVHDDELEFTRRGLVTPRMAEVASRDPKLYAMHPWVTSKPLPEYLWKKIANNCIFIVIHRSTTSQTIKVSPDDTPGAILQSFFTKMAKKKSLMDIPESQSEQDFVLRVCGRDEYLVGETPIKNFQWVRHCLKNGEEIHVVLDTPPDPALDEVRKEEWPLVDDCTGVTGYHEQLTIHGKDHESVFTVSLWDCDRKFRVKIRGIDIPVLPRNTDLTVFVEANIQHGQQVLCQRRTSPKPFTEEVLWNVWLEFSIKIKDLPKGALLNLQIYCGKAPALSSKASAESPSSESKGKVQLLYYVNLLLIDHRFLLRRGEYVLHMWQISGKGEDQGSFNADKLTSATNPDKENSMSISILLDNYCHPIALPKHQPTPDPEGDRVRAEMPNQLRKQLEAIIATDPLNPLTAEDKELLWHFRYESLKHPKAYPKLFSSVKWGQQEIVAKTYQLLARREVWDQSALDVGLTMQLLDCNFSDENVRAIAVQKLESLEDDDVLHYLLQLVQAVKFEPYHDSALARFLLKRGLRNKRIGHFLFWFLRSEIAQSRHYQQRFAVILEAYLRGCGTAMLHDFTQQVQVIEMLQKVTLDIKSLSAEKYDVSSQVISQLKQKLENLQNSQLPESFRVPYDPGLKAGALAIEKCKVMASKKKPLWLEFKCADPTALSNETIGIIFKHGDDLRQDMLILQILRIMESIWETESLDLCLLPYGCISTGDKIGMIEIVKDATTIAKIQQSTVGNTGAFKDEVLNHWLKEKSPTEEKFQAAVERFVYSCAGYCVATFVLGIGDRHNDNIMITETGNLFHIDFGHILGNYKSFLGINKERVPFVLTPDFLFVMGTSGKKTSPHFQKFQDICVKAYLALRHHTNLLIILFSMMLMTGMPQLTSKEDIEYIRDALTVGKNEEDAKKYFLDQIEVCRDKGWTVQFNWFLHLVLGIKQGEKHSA
# T1 sequence (P48736 whole entry): as above
SMILES,"IC50 (PI3Kγ (p120γ); Table 1, p120γ)",IC50 (PI3Kγ; [1]),"IC50 (PI3Kγ (p120γ); Table 2, p120γ)",IC50 (PI3Kγ; [2])
"C[C@@H](C1CC1)N1Cc2cc(-c3ccn4nc(N)c(C(=O)N[C@H]5CC[C@@](C)(O)CC5)c4n3)cc(C(C)(C)O)c2C1=O [Example 171, 2-Amino-5-{2-[(1S)-1-cyclopropylethyl]-7-(2-hydroxypropan-2-yl)-1-oxo-2,3-dihydro-1H-isoindol-5-yl}-N-[cis-4-hydroxy-4-methylcyclohexyl]pyrazolo[1,5-a]pyrimidine-3-carboxamide]",< 100 nM,< 100 nM,–,–
Cc1cc(-c2ccn3nc(N)c(C(=O)N[C@@H](C)c4ccncc4)c3n2)cc2c1C(=O)N([C@@H](C)C1CC1)C2 [Example 173],–,–,< 100 nM,100 to 1000 nM
Cc1cc(-c2ccn3nc(N)c(C(=O)N4CCC4CO)c3n2)cc2c1C(=O)N(C(C)C1CC1)C2 (centres unmarked) [Example 174],–,–,< 100 nM,100 to 1000 nM
Cc1cc(-c2ccn3nc(N)c(C(=O)N[C@H](C)c4cnn(C)c4)c3n2)cc2c1C(=O)N([C@@H](C)C1CC1)C2 [Example 175],–,–,< 100 nM,100 to 1000 nM
Cc1cc(-c2ccn3nc(N)c(C(=O)N[C@@H](C)c4nccs4)c3n2)cc2c1C(=O)N([C@@H](C)C1CC1)C2 [Example 178],–,–,< 100 nM,100 to 1000 nM
CC[C@H](CO)NC(=O)c1c(N)nn2ccc(-c3cc(C)c4c(c3)CN([C@@H](C)C3CC3)C4=O)nc12 [Example 183],–,–,< 100 nM,100 to 1000 nM
Cc1cc(-c2ccn3nc(N)c(C(=O)N[C@H]4CC[C@H](C(=O)O)CC4)c3n2)cc2c1C(=O)N([C@@H](C)C1CC1)C2 [Example 187],–,–,< 100 nM,100 to 1000 nM
Cc1cc(-c2ccn3nc(N)c(C(=O)NCC4(O)CC4)c3n2)cc2c1C(=O)N([C@@H](C)C1CC1)C2 [Example 188],–,–,< 100 nM,100 to 1000 nM
Cc1cc(-c2ccn3nc(N)c(C(=O)N[C@@H](C)C(N)=O)c3n2)cc2c1C(=O)N([C@@H](C)C1CC1)C2 [Example 190],–,–,< 100 nM,100 to 1000 nM
Cc1cc(-c2ccn3nc(N)c(C(=O)N[C@@H](CO)C(C)C)c3n2)cc2c1C(=O)N([C@@H](C)C1CC1)C2 [Example 191],–,–,< 100 nM,100 to 1000 nM
Cc1cc(-c2ccn3nc(N)c(C(=O)N[C@@H](CO)c4ccccc4)c3n2)cc2c1C(=O)N([C@@H](C)C1CC1)C2 [Example 192],–,–,< 100 nM,100 to 1000 nM
Cc1cc(-c2ccn3nc(N)c(C(=O)N[C@H]4CC[C@@H](C(=O)O)CC4)c3n2)cc2c1C(=O)N([C@@H](C)C1CC1)C2 [Example 193],–,–,< 100 nM,100 to 1000 nM
Cc1cc(-c2ccn3nc(N)c(C(=O)N[C@@H]4c5ccccc5C[C@H]4O)c3n2)cc2c1C(=O)N([C@@H](C)C1CC1)C2 [Example 198],–,–,< 100 nM,100 to 1000 nM
Cc1cc(-c2ccn3nc(N)c(C(=O)NCc4ccncc4)c3n2)cc2c1C(=O)N([C@@H](C)C1CC1)C2 [Example 201],–,–,< 100 nM,100 to 1000 nM
Cc1cc(-c2ccn3nc(N)c(C(=O)NCC(C)(C)O)c3n2)cc2c1C(=O)N([C@@H](C)C1CC1)C2 [Example 203],–,–,< 100 nM,100 to 1000 nM
Cc1cc(-c2ccn3nc(N)c(C(=O)N[C@H](C)CO)c3n2)cc2c1C(=O)N([C@@H](C)C1CC1)C2 [Example 206],–,–,< 100 nM,100 to 1000 nM
Cc1cc(-c2ccn3nc(N)c(C(=O)NCc4ccn(C)n4)c3n2)cc2c1C(=O)N([C@@H](C)C1CC1)C2 [Example 207],–,–,< 100 nM,100 to 1000 nM

# Continued, values first:
"IC50 (PI3Kγ (p120γ); Table 1, p120γ)",IC50 (PI3Kγ; [1]),"IC50 (PI3Kγ (p120γ); Table 2, p120γ)",IC50 (PI3Kγ; [2]),SMILES
< 100 nM,< 100 nM,–,–,"C[C@@H](C1CC1)N1Cc2cc(-c3ccn4nc(N)c(C(=O)NC5CC5)c4n3)cc(C(C)(C)O)c2C1=O [Example 170, 2-Amino-N-cyclopropyl-5-{2-[(1S)-1-cyclopropylethyl]-7-(2-hydroxypropan-2-yl)-1-oxo-2,3-dihydro-1H-isoindol-5-yl}pyrazolo[1,5-a]pyrimidine-3-carboxamide]"
–,–,< 100 nM,100 to 1000 nM,Cc1cc(-c2ccn3nc(N)c(C(=O)N[C@H]4CC[C@H](O)CC4)c3n2)cc2c1C(=O)N([C@@H](C)C1CC1)C2 [Example 172]
–,–,< 100 nM,100 to 1000 nM,Cc1cc(-c2ccn3nc(N)c(C(=O)N[C@@H]4CCOC4)c3n2)cc2c1C(=O)N([C@@H](C)C1CC1)C2 [Example 176]
–,–,< 100 nM,100 to 1000 nM,Cc1cc(-c2ccn3nc(N)c(C(=O)N[C@H]4CCOC4)c3n2)cc2c1C(=O)N([C@@H](C)C1CC1)C2 [Example 177]
–,–,< 100 nM,100 to 1000 nM,Cc1cc(-c2ccn3nc(N)c(C(=O)NC4CCNCC4)c3n2)cc2c1C(=O)N([C@@H](C)C1CC1)C2 [Example 179]
–,–,< 100 nM,100 to 1000 nM,Cc1cc(-c2ccn3nc(N)c(C(=O)NC4COC4)c3n2)cc2c1C(=O)N([C@@H](C)C1CC1)C2 [Example 180]
–,–,< 100 nM,100 to 1000 nM,Cc1cc(-c2ccn3nc(N)c(C(=O)NC4CCOCC4)c3n2)cc2c1C(=O)N([C@@H](C)C1CC1)C2 [Example 181]
–,–,< 100 nM,100 to 1000 nM,CO[C@H]1C[C@H](NC(=O)c2c(N)nn3ccc(-c4cc(C)c5c(c4)CN([C@@H](C)C4CC4)C5=O)nc23)C1 [Example 182]
–,–,< 100 nM,100 to 1000 nM,Cc1cc(-c2ccn3nc(N)c(C(=O)N[C@H]4CC[C@H](N)CC4)c3n2)cc2c1C(=O)N([C@@H](C)C1CC1)C2 [Example 184]
–,–,< 100 nM,100 to 1000 nM,Cc1cc(-c2ccn3nc(N)c(C(=O)N[C@H]4C[C@H](N)C4)c3n2)cc2c1C(=O)N([C@@H](C)C1CC1)C2 [Example 185]
–,–,< 100 nM,100 to 1000 nM,Cc1cc(-c2ccn3nc(N)c(C(=O)NCCO)c3n2)cc2c1C(=O)N([C@@H](C)C1CC1)C2 [Example 186]
–,–,< 100 nM,100 to 1000 nM,Cc1cc(-c2ccn3nc(N)c(C(=O)NC4CCC4)c3n2)cc2c1C(=O)N([C@@H](C)C1CC1)C2 [Example 189]
–,–,< 100 nM,100 to 1000 nM,CC(=O)N1CC(NC(=O)c2c(N)nn3ccc(-c4cc(C)c5c(c4)CN([C@@H](C)C4CC4)C5=O)nc23)C1 [Example 194]
–,–,< 100 nM,100 to 1000 nM,Cc1cc(-c2ccn3nc(N)c(C(=O)N[C@@H](CO)C4CC4)c3n2)cc2c1C(=O)N([C@@H](C)C1CC1)C2 [Example 195]
–,–,< 100 nM,100 to 1000 nM,Cc1cc(-c2ccn3nc(N)c(C(=O)N[C@H]4C[C@@](C)(O)C4)c3n2)cc2c1C(=O)N([C@@H](C)C1CC1)C2 [Example 196]
–,–,< 100 nM,100 to 1000 nM,Cc1cc(-c2ccn3nc(N)c(C(=O)N[C@@H]4CC[C@H](O)C4)c3n2)cc2c1C(=O)N([C@@H](C)C1CC1)C2 [Example 197]
–,–,< 100 nM,100 to 1000 nM,Cc1cc(-c2ccn3nc(N)c(C(=O)N[C@@H]4COC[C@H]4O)c3n2)cc2c1C(=O)N([C@@H](C)C1CC1)C2 [Example 199]
–,–,< 100 nM,100 to 1000 nM,Cc1cc(-c2ccn3nc(N)c(C(=O)N[C@@H](C)C4CCOCC4)c3n2)cc2c1C(=O)N([C@@H](C)C1CC1)C2 [Example 200]
–,–,< 100 nM,100 to 1000 nM,Cc1cc(-c2ccn3nc(N)c(C(=O)N[C@@H]4CNC(=O)C4)c3n2)cc2c1C(=O)N([C@@H](C)C1CC1)C2 [Example 202]
–,–,< 100 nM,100 to 1000 nM,Cc1cc(-c2ccn3nc(N)c(C(=O)N[C@H]4CC[C@@H](O)CC4)c3n2)cc2c1C(=O)N([C@@H](C)C1CC1)C2 [Example 205]
